Usually IC50 stands for the concentration that gives 50% inhibition.

SMILES strings stand for the structures. Where a name gives a salt, the structure may show the parent alone.

Type in all cases: binding
The target in one test is T1, JAK2 (Homo sapiens, UniProt O60674).
T1 construct: endogenous in cells; host or cells: Molt4 (ATCC CRL-1582) and Ramos (ATCC CRL-1596) cells; mixed lysate 1:2
Nature of the test: Kinobeads assay with immunodetection, JAK2. The note with it: mixed Molt4/Ramos lysate, read-out: Inhibition values (IC50) JAK2. The method, then: (§1) Determination of the Effect of the Compounds According to the Invention on Janus Kinases (JAK Family) in Kinobeads™ Assays with Immunodetection of Kinases
(§2) The compounds of the present invention as described in the previous examples were tested in a Kinobeads™ assay as described for ZAP-70 (WO-A 2007/137867). Briefly, test compounds (at various concentrations) and the affinity matrix with the immobilized aminopyrido-pyrimidine ligand 24 were added to cell lysate aliquots and allowed to bind to the proteins in the lysate sample. After the incubation time the beads with captured proteins were separated from the lysate. Bound proteins were then eluted and the presence of JAK1, JAK2, JAK3 and TYK2 was detected and quantified using specific antibodies in a dot blot procedure and the Odyssey infrared detection system. Dose response curves for individual kinases were generated and IC50 values calculated. Kinobeads™ assays for ZAP-70 (WO-A 2007/137867) and for kinase selectivity profiling (WO-A 2006/134056) have been previously described.
(§3) The affinity matrix was washed two times with 15 mL of 1×DP buffer containing 0.2% NP40 (IGEPAL® CA-630, Sigma, #13021) and then resuspended in 1×DP buffer containing 0.2% NP40 (3% beads slurry).
(§4) 5×DP buffer: 250 mM Tris-HCl pH 7.4, 25% Glycerol, 7.5 mM MgCl2, 750 mM NaCl, 5 mM Na3VO4; filter the 5×DP buffer through a 0.22 μm filter and store in aliquots at −80° C. The 5×DP buffer is diluted with H2O to 1×DP buffer containing 1 mM DTT and 25 mM NaF.
(§5) Stock solutions of test compounds were prepared in DMSO. In a 96 well plate 30 μL solution of diluted test compounds at 5 mM in DMSO were prepared. Starting with this solution a 1:3 dilution series (9 steps) was prepared. For control experiments (no test compound) a buffer containing 2% DMSO was used.
(§6) Molt4 cells (ATCC catalogue number CRL-1582) and Ramos cells (ATCC catalogue number CRL-1596) were grown in 1 L Spinner flasks (Integra Biosciences, #182101) in suspension in RPMI 1640 medium (Invitrogen, #21875-034) supplemented with 10% Fetal Bovine Serum (Invitrogen) at a density between 0.15×10^6 and 1.2×10^6 cells/mL. Cells were harvested by centrifugation, washed once with 1×PBS buffer (Invitrogen, #14190-094) and cell pellets were frozen in liquid nitrogen and subsequently stored at −80° C. Cells were homogenized in a Potter S homogenizer in lysis buffer: 50 mM Tris-HCl, 0.8% NP40, 5% glycerol, 150 mM NaCl, 1.5 mM MgCl2, 25 mM NaF, 1 mM sodium vanadate, 1 mM DTT, pH 7.5. One complete EDTA-free tablet (protease inhibitor cocktail, Roche Diagnostics, 1873580) per 25 ml, buffer was added. The material was dounced 10 times using a mechanized POTTER S, transferred to 50 mL falcon tubes, incubated for 30 minutes on ice and spun down for 10 minutes at 20,000 g at 4° C. (10,000 rpm in Sorvall SLA600, precooled). The supernatant was transferred to an ultracentrifuge (UZ)-polycarbonate tube (Beckmann, 355654) and spun for 1 hour at 100.000 g at 4° C. (33.500 rpm in Ti50.2, precooled). The supernatant was transferred again to a fresh 50 mL falcon tube, the protein concentration was determined by a Bradford assay (BioRad) and samples containing 50 mg of protein per aliquot were prepared. The samples were immediately used for experiments or frozen in liquid nitrogen and stored frozen at −80° C.
(§7) Cell lysate (approximately 50 mg protein per plate) was thawed in a water bath at room temperature and then stored on ice. To the thawed cell lysate 1×DP 0.8% NP40 buffer containing protease inhibitors (1 tablet for 25 mL buffer; EDTA-free protease inhibitor cocktail; Roche Diagnostics 1873580) was added in order to reach a final protein concentration of 10 mg/mL total protein. The diluted cell lysate was stored on ice. Mixed Molt4/Ramos lysate was prepared by combining one volume of Molt4 lysate and two volumes of Ramos lysate (ratio 1:2). […]

Another test addresses T2, JAK1 (Homo sapiens, UniProt P23458).
T2 construct: endogenous in cells; host or cells: Molt4 (ATCC CRL-1582) and Ramos (ATCC CRL-1596) cells; mixed lysate 1:2
The test can be described thus: Kinobeads assay with immunodetection, JAK1. The note with it: for IC50: Kinobeads assay, mixed Molt4/Ramos lysate, read-out: Inhibition values (IC50) JAK1. The method, then:
as §1, §2, §3, §4, §5, §6, §7

Another test deals with T3, JAK3 (Homo sapiens, UniProt P52333).
T3 construct: endogenous in cells; host or cells: Molt4 (ATCC CRL-1582) and Ramos (ATCC CRL-1596) cells; mixed lysate 1:2
T3 sequence (P52333 1-1124): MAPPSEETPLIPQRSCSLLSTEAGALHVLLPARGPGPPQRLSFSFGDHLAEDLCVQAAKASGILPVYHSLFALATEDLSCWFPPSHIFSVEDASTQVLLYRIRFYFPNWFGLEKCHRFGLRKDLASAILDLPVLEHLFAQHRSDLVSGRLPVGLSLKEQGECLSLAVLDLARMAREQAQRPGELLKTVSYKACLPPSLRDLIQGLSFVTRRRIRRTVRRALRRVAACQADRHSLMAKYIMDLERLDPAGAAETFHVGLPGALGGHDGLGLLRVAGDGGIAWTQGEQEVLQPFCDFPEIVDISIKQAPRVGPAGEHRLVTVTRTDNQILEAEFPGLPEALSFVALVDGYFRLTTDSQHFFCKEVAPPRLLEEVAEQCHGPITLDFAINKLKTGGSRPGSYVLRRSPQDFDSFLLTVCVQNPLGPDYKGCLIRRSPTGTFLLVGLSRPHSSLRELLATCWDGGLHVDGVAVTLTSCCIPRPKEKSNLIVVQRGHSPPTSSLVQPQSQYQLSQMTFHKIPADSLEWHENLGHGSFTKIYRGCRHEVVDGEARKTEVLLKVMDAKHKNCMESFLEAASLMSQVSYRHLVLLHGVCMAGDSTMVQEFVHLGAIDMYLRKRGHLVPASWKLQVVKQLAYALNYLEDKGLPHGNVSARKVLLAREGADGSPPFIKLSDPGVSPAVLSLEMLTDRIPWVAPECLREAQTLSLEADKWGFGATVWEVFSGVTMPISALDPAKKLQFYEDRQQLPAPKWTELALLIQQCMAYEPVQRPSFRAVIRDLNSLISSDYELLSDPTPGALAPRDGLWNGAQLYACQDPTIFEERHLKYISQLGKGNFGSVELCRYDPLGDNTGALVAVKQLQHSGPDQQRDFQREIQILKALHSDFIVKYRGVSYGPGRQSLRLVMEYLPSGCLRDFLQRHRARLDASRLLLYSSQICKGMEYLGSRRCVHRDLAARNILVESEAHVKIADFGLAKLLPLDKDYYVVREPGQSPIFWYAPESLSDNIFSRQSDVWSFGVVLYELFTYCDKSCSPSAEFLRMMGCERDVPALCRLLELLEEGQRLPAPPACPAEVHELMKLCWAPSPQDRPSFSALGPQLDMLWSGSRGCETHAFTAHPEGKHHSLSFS
The test can be described thus: Kinobeads assay with immunodetection, JAK3. Conditions: for IC50: Kinobeads assay, mixed Molt4/Ramos lysate, read-out: Inhibition values (IC50) JAK3. The method, then:
as §1, §2, §3, §4, §5, §6, §7

The target of a further test is T4, TYK2 (Homo sapiens, UniProt P29597).
T4 construct: endogenous in cells; host or cells: Molt4 (ATCC CRL-1582) and Ramos (ATCC CRL-1596) cells; mixed lysate 1:2
T4 sequence (P29597 whole entry): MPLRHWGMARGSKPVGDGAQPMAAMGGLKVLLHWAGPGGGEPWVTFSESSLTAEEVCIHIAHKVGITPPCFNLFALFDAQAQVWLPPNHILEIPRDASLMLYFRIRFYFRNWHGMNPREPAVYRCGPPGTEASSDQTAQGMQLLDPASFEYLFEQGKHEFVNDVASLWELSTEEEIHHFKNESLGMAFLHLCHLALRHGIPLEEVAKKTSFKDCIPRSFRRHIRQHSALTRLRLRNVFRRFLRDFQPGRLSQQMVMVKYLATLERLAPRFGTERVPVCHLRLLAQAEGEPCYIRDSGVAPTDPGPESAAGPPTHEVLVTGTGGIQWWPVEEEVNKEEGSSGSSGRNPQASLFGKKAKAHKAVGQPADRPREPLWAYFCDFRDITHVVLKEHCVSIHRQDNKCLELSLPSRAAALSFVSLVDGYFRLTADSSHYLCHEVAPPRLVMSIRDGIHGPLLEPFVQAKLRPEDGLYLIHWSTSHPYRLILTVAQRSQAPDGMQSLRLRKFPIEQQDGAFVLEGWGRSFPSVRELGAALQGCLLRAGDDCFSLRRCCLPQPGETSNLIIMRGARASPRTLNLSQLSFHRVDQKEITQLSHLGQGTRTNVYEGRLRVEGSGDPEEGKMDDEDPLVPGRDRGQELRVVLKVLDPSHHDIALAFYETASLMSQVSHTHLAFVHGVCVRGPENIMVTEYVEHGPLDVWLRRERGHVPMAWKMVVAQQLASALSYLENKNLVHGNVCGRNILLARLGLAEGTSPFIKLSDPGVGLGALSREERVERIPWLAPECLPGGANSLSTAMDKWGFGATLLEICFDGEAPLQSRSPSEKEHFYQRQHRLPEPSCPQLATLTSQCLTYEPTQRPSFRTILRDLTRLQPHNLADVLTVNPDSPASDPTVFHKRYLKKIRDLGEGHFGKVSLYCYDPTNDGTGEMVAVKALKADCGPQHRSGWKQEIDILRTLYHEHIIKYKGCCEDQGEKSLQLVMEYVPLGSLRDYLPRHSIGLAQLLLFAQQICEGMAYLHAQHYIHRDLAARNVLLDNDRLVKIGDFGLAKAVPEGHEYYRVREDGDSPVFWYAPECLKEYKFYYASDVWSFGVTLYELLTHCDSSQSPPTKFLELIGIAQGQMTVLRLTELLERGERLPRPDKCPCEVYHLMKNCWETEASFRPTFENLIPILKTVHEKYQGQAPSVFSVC
Nature of the test: Kinobeads assay with immunodetection, TYK2. The note with it: for IC50: Kinobeads assay, mixed Molt4/Ramos lysate, read-out: Inhibition values (IC50) Tyk2. The method, then: as §1, §2, §3, §4, §5, §6, §7

T1 sequence (O60674 whole entry): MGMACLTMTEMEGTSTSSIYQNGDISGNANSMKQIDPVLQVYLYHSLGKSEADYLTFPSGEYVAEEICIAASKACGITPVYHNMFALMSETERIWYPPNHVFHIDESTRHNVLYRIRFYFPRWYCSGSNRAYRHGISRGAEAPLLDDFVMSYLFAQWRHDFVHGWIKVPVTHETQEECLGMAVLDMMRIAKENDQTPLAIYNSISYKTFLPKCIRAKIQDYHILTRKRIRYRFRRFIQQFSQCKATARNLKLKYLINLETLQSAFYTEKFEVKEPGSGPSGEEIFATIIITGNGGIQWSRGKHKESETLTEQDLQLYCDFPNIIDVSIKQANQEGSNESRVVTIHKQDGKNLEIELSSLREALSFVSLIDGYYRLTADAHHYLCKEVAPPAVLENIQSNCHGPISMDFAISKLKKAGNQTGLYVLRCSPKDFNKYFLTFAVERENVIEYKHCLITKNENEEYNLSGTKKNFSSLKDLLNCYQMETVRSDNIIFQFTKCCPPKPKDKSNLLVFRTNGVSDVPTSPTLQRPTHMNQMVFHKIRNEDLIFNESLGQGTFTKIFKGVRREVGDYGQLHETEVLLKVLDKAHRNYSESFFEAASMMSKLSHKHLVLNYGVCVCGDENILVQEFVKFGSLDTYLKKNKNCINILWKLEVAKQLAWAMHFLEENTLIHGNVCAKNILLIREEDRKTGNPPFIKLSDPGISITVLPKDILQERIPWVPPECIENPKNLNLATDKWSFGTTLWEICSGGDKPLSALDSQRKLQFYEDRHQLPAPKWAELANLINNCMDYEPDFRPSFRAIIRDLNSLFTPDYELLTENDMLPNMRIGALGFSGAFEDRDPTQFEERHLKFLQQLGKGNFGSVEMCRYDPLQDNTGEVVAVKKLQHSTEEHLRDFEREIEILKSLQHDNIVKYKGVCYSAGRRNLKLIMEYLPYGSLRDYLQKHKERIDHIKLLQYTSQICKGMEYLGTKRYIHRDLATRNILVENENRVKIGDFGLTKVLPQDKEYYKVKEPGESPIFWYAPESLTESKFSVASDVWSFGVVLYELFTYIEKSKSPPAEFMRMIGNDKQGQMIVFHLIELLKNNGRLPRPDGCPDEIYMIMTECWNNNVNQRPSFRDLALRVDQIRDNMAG
T2 sequence (P23458 whole entry): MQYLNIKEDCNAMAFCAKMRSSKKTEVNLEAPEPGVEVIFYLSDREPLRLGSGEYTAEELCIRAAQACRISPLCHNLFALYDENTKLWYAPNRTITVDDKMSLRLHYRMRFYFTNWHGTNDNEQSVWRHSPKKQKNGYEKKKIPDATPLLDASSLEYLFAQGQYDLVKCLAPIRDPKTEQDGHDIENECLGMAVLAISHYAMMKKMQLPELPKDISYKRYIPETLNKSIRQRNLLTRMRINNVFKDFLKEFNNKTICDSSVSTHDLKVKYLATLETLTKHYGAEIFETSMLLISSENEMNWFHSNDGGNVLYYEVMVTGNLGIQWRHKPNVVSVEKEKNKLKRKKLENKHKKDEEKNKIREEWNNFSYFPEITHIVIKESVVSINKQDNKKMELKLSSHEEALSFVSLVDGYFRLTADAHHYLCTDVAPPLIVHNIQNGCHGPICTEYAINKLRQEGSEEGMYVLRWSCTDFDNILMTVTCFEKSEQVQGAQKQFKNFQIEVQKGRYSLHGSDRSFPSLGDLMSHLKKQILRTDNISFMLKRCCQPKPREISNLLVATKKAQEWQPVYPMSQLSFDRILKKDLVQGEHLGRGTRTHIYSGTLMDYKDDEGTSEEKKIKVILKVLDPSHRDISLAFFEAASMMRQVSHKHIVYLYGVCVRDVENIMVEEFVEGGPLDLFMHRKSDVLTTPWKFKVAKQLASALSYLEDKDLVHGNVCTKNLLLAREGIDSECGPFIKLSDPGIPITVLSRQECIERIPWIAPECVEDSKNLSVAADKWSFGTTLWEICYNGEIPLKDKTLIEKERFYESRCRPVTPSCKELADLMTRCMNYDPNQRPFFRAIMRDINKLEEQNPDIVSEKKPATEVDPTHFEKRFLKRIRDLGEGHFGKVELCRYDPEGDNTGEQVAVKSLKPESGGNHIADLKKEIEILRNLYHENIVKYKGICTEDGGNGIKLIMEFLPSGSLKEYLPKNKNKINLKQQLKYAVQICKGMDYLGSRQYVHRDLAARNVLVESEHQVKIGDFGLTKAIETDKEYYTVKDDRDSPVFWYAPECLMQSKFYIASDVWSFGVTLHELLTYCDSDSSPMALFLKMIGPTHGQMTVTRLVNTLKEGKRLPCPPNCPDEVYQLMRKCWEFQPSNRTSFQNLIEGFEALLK

Take `CC(=O)N1CC[C@@H](CNc2nc(Nc3cnn(C)c3)ncc2Cl)C1` [Example 26, (S)-1-(3-(((5-chloro-2-((1-methyl-1H-pyrazol-4-yl)amino)pyrimidin-4-yl)amino)methyl)pyrrolidin-1-yl)ethanone]: the IC50 on JAK2 fell in the range of 1000 to 10000 nM; at JAK1 it was 100 to 1000 nM; on JAK3, 1000 to 10000 nM; at TYK2, 100 to 1000 nM. Also, the “Selectivity ratio over JAK2, JAK1” value on JAK1 is “JAK1 = 9”.

Take `C=CS(=O)(=O)N1CCCC[C@H]1CNc1nc(Nc2cnn(C)c2)ncc1Cl` [Example 38, (S)-5-chloro-N^2-(1-methyl-1H-pyrazol-4-yl)-N^4-((1-(vinylsulfonyl)piperidin-2-yl)methyl)pyrimidine-2,4-diamine]: the 50% inhibitory concentration (IC50) was 1000 to 10000 nM on JAK2, 100 to 1000 nM on JAK1, < 100 nM at JAK3 and 100 to 1000 nM on TYK2. The “Selectivity ratio over JAK2, JAK3” value on JAK3 (JAK3 over JAK2) is listed as “JAK3 = 57”.

Take `CN(C)C(=O)Cn1cc(Nc2ncc(Cl)c(NC[C@@H]3CCCN3)n2)cn1` [Example 66, (S)-2-(4-(5-chloro-4-(pyrrolidin-2-ylmethylamino)pyrimidin-2-ylamino)-1H-pyrazol-1-yl)-N,N-dimethylacetamide]: the concentration for half-maximal inhibition (IC50) at JAK2 is > 10000 nM; on JAK1, 1000 to 10000 nM; at JAK3, 1000 to 10000 nM; at TYK2, 100 to 1000 nM.

As for `C=CC(=O)N1CCCC[C@H]1CNc1nc(Nc2cnn(C)c2)ncc1Cl` [Example 34, (S)-1-(2-(((5-chloro-2-((1-methyl-1H-pyrazol-4-yl)amino)pyrimidin-4-yl)amino)methyl)piperidin-1-yl)prop-2-en-1-one], the IC50 at JAK2 is > 10000 nM; at JAK1, 100 to 1000 nM; at JAK3, 1000 to 10000 nM; on TYK2, 1000 to 10000 nM.

Consider `Cn1cc(Nc2ncc(Cl)c(NC[C@H]3CCN(CCO)C3)n2)cn1` [Example 56, (R)-2-(3-((5-chloro-2-(1-methyl-1H-pyrazol-4-ylamino)pyrimidin-4-ylamino)methyl)pyrrolidin-1-yl)ethanol], for which the IC50 fell in the range of 1000 to 10000 nM at JAK2, 100 to 1000 nM on JAK1, 1000 to 10000 nM at JAK3 and 1000 to 10000 nM at TYK2. The “Selectivity ratio over JAK2, JAK1” value on JAK1 is reported as “JAK1 = 46”.

As for `C=CC(=O)N1CCCC[C@H]1CNc1nc(Nc2cnn(CCO)c2)ncc1Cl` [Example 35, (S)-1-(2-(((5-chloro-2-((1-(2-hydroxyethyl)-1H-pyrazol-4-yl)amino)pyrimidin-4-yl)amino)methyl)piperidin-1-yl)prop-2-en-1-one], the IC50 on JAK2 is > 10000 nM; on JAK1, 100 to 1000 nM; at JAK3 it was 1000 to 10000 nM; on TYK2 it was 1000 to 10000 nM.

Turning to `Cn1cc(Nc2ncc(F)c(NC[C@H]3CCCN3C(=O)CC#N)n2)cn1` [Example 113, (R)-3-(2-(((5-fluoro-2-((1-methyl-1H-pyrazol-4-yl)amino)pyrimidin-4-yl)amino)methyl)pyrrolidin-1-yl)-3-oxopropanenitrile], the IC50 at JAK2 was 1000 to 10000 nM; at JAK1, < 100 nM; at JAK3 it was 100 to 1000 nM; at TYK2 it was < 100 nM. The “Selectivity ratio over JAK2, Tyk2” value at TYK2 (Tyk2 over JAK2) is recorded as “Tyk2 = 170”.

Consider `Cn1cc(Nc2ncc(F)c(NC[C@H]3CCCN3)n2)cn1` [Example 70, (R)-5-fluoro-N^2-(1-methyl-1H-pyrazol-4-yl)-N^4-(pyrrolidin-2-ylmethyl)pyrimidine-2,4-diamine Hydrochloride], for which the concentration for half-maximal inhibition (IC50) on JAK2 was > 10000 nM; on JAK1, 1000 to 10000 nM; at JAK3, > 10000 nM; on TYK2 it was > 10000 nM.

On to `Cn1cc(Nc2ncc(Cl)c(NC[C@@H]3CCCN3CCCS(C)(=O)=O)n2)cn1` [Example 119, (S)-5-chloro-N^2-(1-methyl-1H-pyrazol-4-yl)-N^4-((1-(3-(methylsulfonyl)propyl)pyrrolidin-2-yl)methyl)pyrimidine-2,4-diamine], for which the IC50 was 1000 to 10000 nM at JAK2, < 100 nM on JAK1, 1000 to 10000 nM at JAK3 and 100 to 1000 nM on TYK2. For the same molecule, on JAK1, the “Selectivity ratio over JAK2, JAK1” value is “JAK1 = 68”.

As to `CCN1CCC[C@H]1CNc1nc(Nc2cnn(C)c2)ncc1Cl` [Example 61, (S)-5-chloro-N4-((1-ethylpyrrolidin-2-yl)methyl)-N2-(1-methyl-1H-pyrazol-4-yl)pyrimidine-2,4-diamine], the IC50 at JAK2 was > 10000 nM; at JAK1, 100 to 1000 nM; at JAK3, 100 to 1000 nM; at TYK2, > 10000 nM. The “Selectivity ratio over JAK2, JAK1” value at JAK1 is “JAK1 = 49”.

`Cc1cnc(Nc2cnn(CC(F)F)c2)nc1NC[C@@H]1C[C@H](F)CN1C(=O)CCC#N` [Example 122, 4-((2S,4S)-2-(((2-((1-(2,2-difluoroethyl)-1H-pyrazol-4-yl)amino)-5-methylpyrimidin-4-yl)amino)methyl)-4-fluoropyrrolidin-1-yl)-4-oxobutanenitrile]: the IC50 at JAK2 is 1000 to 10000 nM; on JAK1 it was < 100 nM; on JAK3 it was 1000 to 10000 nM; on TYK2, 100 to 1000 nM. Further, the “Selectivity ratio over JAK2, JAK1” value at JAK1 is “JAK1 = 194”.
